# What was measured:
# [1] = Subacute toxicity in Kunming mouse assessed as ruffled fur at 50 mg/kg/day, po administered for 2 weeks; assay type: organism-based; settings: in vivo, 336 h
# [2] = Tmax in ICR mouse at 10 mg/kg, po measured for 12 hrs by LC-MS/MS analysis; assay type: ADME, organism-based; settings: in vivo
# [3] = Metabolic stability in human liver microsomes assessed as intrinsic clearance preincubated for 10 mins followed by NADPH regenerating system addition and measured after 2 hrs by LC-MS/MS analysis; assay type: ADME, Microsome; settings: time 130 min, read-out: CLH
# [4] = Subacute toxicity in Kunming mouse assessed as appearance of lesions in spleen at 50 mg/kg/day, po administered for 2 weeks; assay type: organism-based; settings: in vivo, 336 h
# [5] = AUC (0 to infinity) in ICR mouse at 2 mg/kg, iv measured for 12 hrs by LC-MS/MS analysis; assay type: ADME, organism-based; parameters: dose 2 mg/kg, time 12 hrs, route iv; settings: in vivo
# [6] = Aqueous solubility of compound at pH 7.4 at 0.1 to 10 mg; assay type: physicochemical; settings: aqueous medium, dose 0.1-10 mg
# [7] = Cmax in ICR mouse at 2 mg/kg, iv measured for 12 hrs by LC-MS/MS analysis; assay type: ADME, organism-based; parameters: time 12 hrs, dose 2 mg/kg, route iv; settings: in vivo
# [8] = AUC (0 to infinity) in ICR mouse at 10 mg/kg, po measured for 12 hrs by LC-MS/MS analysis; assay type: ADME, organism-based; parameters: time 12 hrs, dose 10 mg/kg, route po; settings: in vivo
# [9] = Subacute toxicity in Kunming mouse assessed as lethargy at 50 mg/kg/day, po administered for 2 weeks; assay type: organism-based; settings: in vivo, 336 h
# [10] = AUC (0 to t) in ICR mouse at 10 mg/kg, po measured for 12 hrs by LC-MS/MS analysis; assay type: ADME, organism-based; parameters: dose 10 mg/kg, time 12 hrs, route po; settings: in vivo
# [11] = Clearance in ICR mouse at 2 mg/kg, iv measured for 12 hrs by LC-MS/MS analysis; assay type: ADME, organism-based; settings: in vivo
# [12] = Subacute toxicity in Kunming mouse assessed as appearance of lesions in kidneys at 50 mg/kg/day, po administered for 2 weeks; assay type: organism-based; settings: in vivo, 336 h
# [13] = Half life in ICR mouse at 10 mg/kg, po measured for 12 hrs by LC-MS/MS analysis; assay type: ADME, organism-based; settings: in vivo
# [14] = Subacute toxicity in Kunming mouse assessed as appearance of lesions in lungs at 50 mg/kg/day, po administered for 2 weeks; assay type: organism-based; settings: in vivo, 336 h
# [15] = Subacute toxicity in Kunming mouse assessed as abnormalities in lungs at 50 mg/kg/day, po administered for 2 weeks; assay type: organism-based; settings: in vivo, 336 h
# [16] = Subacute toxicity in Kunming mouse assessed as abnormalities in heart at 50 mg/kg/day, po administered for 2 weeks; assay type: organism-based; settings: in vivo, 336 h
# [17] = Subacute toxicity in Kunming mouse assessed as abnormalities in spleen at 50 mg/kg/day, po administered for 2 weeks; assay type: organism-based; settings: in vivo, 336 h
# [18] = AUC (0 to t) in ICR mouse at 2 mg/kg, iv measured for 12 hrs by LC-MS/MS analysis; assay type: ADME, organism-based; parameters: dose 2 mg/kg, time 12 hrs, route iv; settings: in vivo
# [19] = Metabolic stability in human liver microsomes assessed as half life preincubated for 10 mins followed by NADPH regenerating system addition and measured after 2 hrs by LC-MS/MS analysis; assay type: ADME, Microsome; settings: time 130 min
# [20] = Tmax in ICR mouse at 2 mg/kg, iv measured for 12 hrs by LC-MS/MS analysis; assay type: ADME, organism-based; settings: in vivo
# [21] = Subacute toxicity in Kunming mouse assessed as clonic convulsion at 50 mg/kg/day, po administered for 2 weeks; assay type: organism-based; settings: in vivo, 336 h
# [22] = Acute toxicity in Kunming mouse assessed as change in body weight at 2000 mg/kg, po administered for 7 days; assay type: organism-based; settings: in vivo, 168 h, time 7 day
# [23] = Subacute toxicity in Kunming mouse assessed as appearance of lesions in liver at 50 mg/kg/day, po administered for 2 weeks; assay type: organism-based; settings: in vivo, 336 h
# [24] = Aqueous solubility of compound at pH 2 at 0.1 to 10 mg; assay type: physicochemical; settings: aqueous medium, dose 0.1-10 mg
# [25] = Oral bioavailability in ICR mouse at 10 mg/kg measured for 12 hrs by LC-MS/MS analysis; assay type: ADME, organism-based; settings: in vivo
# [26] = Subacute toxicity in Kunming mouse assessed as signs of toxicity at 50 mg/kg/day, po administered for 2 weeks; assay type: organism-based; settings: in vivo, 336 h
# [27] = Subacute toxicity in Kunming mouse assessed as appearance of lesions in heart at 50 mg/kg/day, po administered for 2 weeks; assay type: organism-based; settings: in vivo, 336 h
# [28] = Subacute toxicity in Kunming mouse assessed as anorexia at 50 mg/kg/day, po administered for 2 weeks; assay type: organism-based; settings: in vivo, 336 h
# [29] = Cmax in ICR mouse at 10 mg/kg, po measured for 12 hrs by LC-MS/MS analysis; assay type: ADME, organism-based; parameters: time 12 hrs, dose 10 mg/kg, route po; settings: in vivo
# [30] = Half life in ICR mouse at 2 mg/kg, iv measured for 12 hrs by LC-MS/MS analysis; assay type: ADME, organism-based; settings: in vivo
# [31] = Subacute toxicity in Kunming mouse assessed as abnormalities in kidneys at 50 mg/kg/day, po administered for 2 weeks; assay type: organism-based; settings: in vivo, 336 h
# [32] = Subacute toxicity in Kunming mouse assessed as abnormalities in liver at 50 mg/kg/day, po administered for 2 weeks; assay type: organism-based; settings: in vivo, 336 h
# [33] = Acute toxicity in Kunming mouse assessed as abnormal behaviour at 2000 mg/kg, po administered for 7 days; assay type: organism-based; settings: in vivo, 168 h, time 7 day
# [34] = Aqueous solubility of compound at pH 7 at 0.1 to 10 mg; assay type: physicochemical; settings: aqueous medium, dose 0.1-10 mg
# [35] = Metabolic stability in human liver microsomes assessed as parent compound remaining preincubated for 10 mins followed by NADPH regenerating system addition and measured after 60 mins by LC-MS/MS analysis; assay type: ADME, Microsome; settings: time 70 min, read-out: Stability
# [36] = target: T1, Human immunodeficiency virus type 1 reverse transcriptase (Human immunodeficiency virus 1, UniProt Q72547); experiment: Binding affinity to HIV-1 reverse transcriptase assessed as dissociation constant by SPR analysis
# [37] = Selectivity index, ratio of CC50 for cytotoxicity against human MT4 cells to EC50 for antiviral activity against HIV-1 RES056 harboring RT K103N/Y181C double mutant infected in human MT4 cells; assay type: toxicity, cell-based; settings: read-out: Ratio CC50/EC50
# [38] = Cytotoxicity against human MT4 cells assessed as reduction in cell viability measured after 5 days by MTT assay; assay type: toxicity, cell-based; settings: time 5 day
# [39] = tested on: Human immunodeficiency virus 1; experiment: Antiviral activity against HIV-1 harboring RT L100I mutant infected in human MT4 cells assessed as protection against virus-induced cytopathic effect incubated for 5 days by MTT assay; assay type: functional, organism-based; settings: Human immunodeficiency virus 1, MT4, 120 h
# [40] = tested on: Human immunodeficiency virus 1; experiment: Antiviral activity against HIV-1 RES056 harboring RT K103N/Y181C double mutant infected in human MT4 cells assessed as protection against virus-induced cytopathic effect incubated for 5 days by MTT assay; assay type: functional, organism-based; settings: Human immunodeficiency virus 1, RES056, MT4, 120 h
# [41] = tested on: Human immunodeficiency virus 1; experiment: Antiviral activity against wild type HIV-1 IIIB infected in human MT4 cells assessed as protection against virus-induced cytopathic effect incubated for 5 days by MTT assay; assay type: functional, organism-based; settings: Human immunodeficiency virus 1, IIIB, MT4, 120 h
# [42] = tested on: Human immunodeficiency virus 1; experiment: Antiviral activity against HIV-1 harboring RT E138K mutant infected in human MT4 cells assessed as protection against virus-induced cytopathic effect incubated for 5 days by MTT assay; assay type: functional, organism-based; settings: Human immunodeficiency virus 1, MT4, 120 h
# [43] = tested on: Human immunodeficiency virus 1; experiment: Antiviral activity against HIV-1 harboring RT K103N mutant infected in human MT4 cells assessed as protection against virus-induced cytopathic effect incubated for 5 days by MTT assay; assay type: functional, organism-based; settings: Human immunodeficiency virus 1, MT4, 120 h
# [44] = target: T1, Human immunodeficiency virus type 1 reverse transcriptase; experiment: Inhibition of wild type recombinant HIV-1 reverse transcriptase using biotin-labelled dNTPs as substrate assessed as inhibition of biotin-labelled UTP incorporation incubated for 1 hr by ELISA
# [45] = tested on: Human immunodeficiency virus 1; experiment: Antiviral activity against HIV-1 harboring RT F227L/V106A double mutant infected in human MT4 cells assessed as protection against virus-induced cytopathic effect incubated for 5 days by MTT assay; assay type: functional, organism-based; settings: Human immunodeficiency virus 1, MT4, 120 h
# [46] = tested on: Human immunodeficiency virus 1; experiment: Antiviral activity against HIV-1 harboring RT Y181C mutant infected in human MT4 cells assessed as protection against virus-induced cytopathic effect incubated for 5 days by MTT assay; assay type: functional, organism-based; settings: Human immunodeficiency virus 1, MT4, 120 h
# [47] = tested on: Human immunodeficiency virus 1; experiment: Antiviral activity against HIV-1 harboring RT Y188L mutant infected in human MT4 cells assessed as protection against virus-induced cytopathic effect incubated for 5 days by MTT assay; assay type: functional, organism-based; settings: Human immunodeficiency virus 1, MT4, 120 h
# [48] = Selectivity index, ratio of CC50 for cytotoxicity against human MT4 cells to EC50 for antiviral activity against wild type HIV-1 IIIB infected in human MT4 cells; assay type: toxicity, cell-based; settings: read-out: Ratio CC50/EC50
smiles,measurement,setting,value
Cc1cc(/C=C/C#N)cc(C)c1Oc1nc(Nc2ccc(C#N)c(F)c2)nc2c1COC2.Cl,Activity,[1],Non-Toxic
same,Tmax,[2],15 min
same,microsomal CLint,[3],87.6 µL/min/mg
same,Activity,[4],Non-Toxic
same,AUC,[5],255 ng·h/mL
same,solubility,[6],38.9 µg/mL
same,Cmax,[7],484 ng/mL
same,AUC(0-inf),[8],154 ng·h/mL
same,Activity,[9],Non-Toxic
same,AUC(0-t) at 12 h,[10],107 ng·h/mL
same,CL,[11],1720 mL/min/kg
same,Activity,[12],Non-Toxic
same,half-life,[13],307 min
same,Activity,[14],Non-Toxic
same,Activity,[15],Non-Toxic
same,Activity,[16],Non-Toxic
same,Activity,[17],Non-Toxic
same,AUC(0-t) at 12 h,[18],250 ng·h/mL
same,half-life,[19],11.3 min
same,Tmax,[20],0 h
same,Activity,[21],Non-Toxic
same,Activity,[22],Non-Toxic
same,Activity,[23],Non-Toxic
same,solubility,[24],349 µg/mL
same,bioavailability,[25],12.1%
same,Activity,[26],Non-Toxic
same,Activity,[27],Non-Toxic
same,Activity,[28],Non-Toxic
same,Cmax,[29],37.5 ng/mL
same,half-life,[30],85.8 min
same,Activity,[31],Non-Toxic
same,Activity,[32],Non-Toxic
same,Activity,[33],Non-Toxic
same,solubility,[34],149 µg/mL
same,remaining at 1 h,[35],5%
C[C@]12CC[C@H]3[C@@H](CCC4=CC(=O)CC[C@@]43C)[C@@H]1CC[C@@H]2O [TESTOSTERONE],half-life,[19],11.1 min
Cc1cc(/C=C/C#N)cc(C)c1Oc1nc(Nc2ccc(C#N)c(F)c2)nc2c1COC2,Kd,[36],2500 nM
same,selectivity ratio,[37],857
same,CC50 at 120 h,[38],45600 nM
same,EC50,[39],3.04 nM
same,EC50,[40],53.3 nM
same,EC50,[41],2.22 nM
same,EC50,[42],9.77 nM
same,EC50,[43],2.87 nM
same,solubility,[6],5.7 µg/mL
same,IC50,[44],50 nM
same,EC50,[45],19.8 nM
same,EC50,[46],10.2 nM
same,EC50,[47],13.2 nM
same,selectivity ratio,[48],20600
same,solubility,[24],23.1 µg/mL
same,solubility,[34],12.3 µg/mL

# Reference: ChEMBL document CHEMBL5236598, “Lead Optimization and Avoidance of Metabolic-perturbing Motif Developing Novel Diarylpyrimidines as Potent HIV-1 NNRTIs” (J Med Chem, 2022)
